Our source for the Activity values is ChEMBL document CHEMBL1137807, “A novel dimeric diterpene from Salvia prionitis” (J Nat Prod, 2001).

Calls of active or inactive are those of the source. The rule behind the calls is not given here.

One test relates to HL-60. The experiment in a line: Antitumor activity against human HL60 cells. Format: functional, cell-based.
For a further test, the system named is Bel-7402. The experiment in a line: Antitumor activity against human Bel7402 cells. The test is classed as functional, cell-based.

Take `CC(C)c1cc2c(c(O)c1O)[C@@]1(C)CCCC(C)(C)C1=CC2=O`: the result with HL-60 and in the test with Bel-7402 was Active.
For `CC(C)C1=CC2=C[C@H]3Oc4c(c(C(C)C)cc5c4[C@]4(C)CCCC(C)(C)C4=CC5=O)O[C@]34C(C)(C)CCC[C@@]4(C)C2=C(O)C1=O`, the result in the test on HL-60 and in the test on Bel-7402 was inactive.
